{"source": "patent US9221872B2", "about": "“Peptides and peptidomimetics in combination uses and treatments for cancer patient subpopulations” (priority 2013, dated 2015)", "key": {"[1]": {"tested_on": "Jurkat cells", "test": "G2 checkpoint abrogation, bleomycin treated Jurkat cells, flow cytometry", "type": "cell-based, human", "details": "for G2 checkpoint abrogating activity: bleomycin treated Jurkat cells", "description": "Cell-Cycle Analysis The cell cycle status of the cells treated with bleomycin or adriamcin were analyzed by flow cytometry as described by Kawabe (1997) Nature 385:454-458. In brief, two million cells were re-suspended and incubated in 200 μl Krishan's solution (0.1% Sodium citrate, 50 μg/ml PI, 20 μg/ml RNase A and 0.5% NP-40) for 1 hr at 4° C. and analyzed by a flow cytometry, FACScan™ (Beckton Dickinson, Mountain View, Calif.) with the program CELLQuest™ (Beckton Dickinson).\nFlow cytometry analysis of G2 checkpoint abrogation was performed using human leukemia derived Jurkat cell line. In brief, cultured cells were treated with various doses of peptide/peptidomimetic and 40 μg/ml bleomycine for 24 hr. The DNA of the cells was stained with propidium iodide and analyzed by flow cytometry.\n(§1) The “Appearance of side effect when used alone” indicates the peptide/peptidomimetic dose that produced Jurkat cell cycle disturbance, i.e., the appearance of significant amounts of SubG1 cells (dead cells) or cells in which the DNA content of each varies more than usual. […] The “G2 abrogating dose” indicates the peptide/peptidomimetic dose with 40 μg/ml bleomycine that produced detectable G2 checkpoint abrogation activity following treatment for 24 hours. The “Appearance of side effect when used with colchicine” indicates the peptide/peptidomimetic dose with 5 μg/ml colchicine that produced Jurkat cell cycle disturbance following treatment for 24 hours.\n(§2) A comparison between G2 checkpoint abrogating activity and non specific toxicity (M checkpoint abrogation) by CB501 was performed. In brief, Jurkat cells were treated with 40 μg/ml bleomycin or 0.5 μg/ml colchicine for G2 checkpoint abrogating activity and non specific toxicity, respectively. The DNA amount in each of the treated cells was analyzed by flow cytometry, as previously described."}, "[2]": {"tested_on": "HUVEC", "test": "Growth of normal human umbilical endothelial cells", "type": "cell-based", "description": "Similar studies were performed using normal human umbilical endothelial cells (HUVEC)."}, "[3]": {"tested_on": "M1 and M2 macrophages", "test": "Phagocytic activity of M1 and M2 macrophages, fluorescent beads", "type": "cell-based, human", "description": "Referring to FIG. 19, macrophages were obtained by stimulating human peripheral blood mononuclear cells by 0.32 uM of PMA and removing all suspension cells 48 hours of PMA stimulation. The cells were further incubated with 50 ng/ml IFN-gamma, 10 ng/ml LPS to obtain M1 phenotype, and 20 ng/ml IL-4 to obtain M2 macrophages. Both treatment was with or without CBP501. The phagocytic activity was monitored by using fluorescent labelled beads and flow cytometry."}, "[4]": {"tested_on": "MIAPaCa2", "test": "Sub-G1 (dead cell) analysis of MIAPaCa2 treated with bleomycin or adriamycin", "type": "cell-based, human", "details": "bleomycine 10 μg/ml or adriamycin 1 μg/ml, 3 hours, then 21 hours", "description": "The G2 checkpoint abrogating activity of various compounds at different doses on human pancreatic cancer derived cell line MIAPaCa2 treated with bleomycine (Bleo) or adriamycin (ADR) was studied. Briefly, cells were incubated with the compounds and bleomycine (10 μg/ml) or adriamycin (1 μg/ml) for 3 hours. The medium was changed and incubated for an additional 21 hours. Harvested cells were stained for DNA by propium iodide and analyzed with flow cytometry as previously described. The % of the sub-G1 cell population is indicated as dead cells in FIG. 3."}, "[5]": {"tested_on": "non-squamous NSCLC", "test": "Phase II randomized study, cisplatin and pemetrexed with or without CBP501", "type": "in vivo, human", "details": "for Hazard Ratio OS: Arm A vs Arm B", "description": "Clinical Study Design: Open-label, multicenter, phase II randomized, two-arm, comparative study. The protocol evaluated full-dose cisplatin and pemetrexed with or without CBP501. […] Randomization was stratified according to baseline stage of disease (IIIb vs IV), presence of brain metastasis and whether or not patients were eligible for bevacizumab therapy.\nA cycle was considered to be 3 weeks (21 days).\n3. Cisplatin 75 mg/m^2 was administered as a 1-hour i.v. infusion immediately after the pemetrexed infusion.\nCox proportional hazards model was employed to estimate the hazard ratio (HR) for PFS between the 2 treatment arms. The model included the treatment arm as a factor as well as the randomization stratification factors. The following covariates were explored: age, gender, race (Caucasian/non-Caucasian), prior surgery/procedure (yes/no), prior radiotherapy (yes/no), x-ray interpretation (normal/abnormal), ECG interpretation (normal/abnormal), bone scan (normal/abnormal), and time from diagnosis. Any continuous variables such as age and time from diagnosis to study treatment could have been converted into categorical variables by specifying 2 or several classes of values if a better model fit would result. The exploratory variables were entered using a stepwise regression algorithm using the following criteria: a variable must be significant at the 0.25 level to be entered into the model and significant at 0.15 level to remain in the model. For the final model, the point estimate of the hazard ratios were provided along with 95% CIs.\nSubgroup analyses were conducted for patients that had […] at screening. Additional subgroup analysis was performed with a software GraphPad Prism 5 with raw data on each patients analyzed."}, "[6]": {"details": "cited from earlier work"}, "[7]": {"tested_on": "CBP501-sensitive tumor cells", "details": "cited from earlier work"}, "[8]": {"tested_on": "Jurkat cells", "test": "M phase checkpoint abrogation / non specific toxicity, colchicine treated Jurkat cells", "type": "cell-based", "description": "Flow cytometry analysis of M phase checkpoint abrogation by the compounds was performed using human T cell leukemia Jurkat cell line treated with colchicine (5 μg/ml or 0.5 μg/ml) and various doses of peptide/peptidomimetics for 24 hr (FIG. 12). The DNA of the cells was stained and analyzed by flow cytometry as described above.\nas §1, §2"}, "[9]": {"tested_on": "HUVEC cells", "test": "G2 checkpoint abrogation by CBP501 combined with cis-platin in various cell lines", "type": "cell-based, human", "details": "cis-platin 3 μg/ml, 3 hr, then 45 hr", "description": "The medium was aspirated, fresh medium without these compounds was added and the cells were incubated for an additional 45 hr. The cells including floating cells were harvested using trypsin-EDTA solution, incubated with Krishan's solution and analyzed for DNA content by flow cytometry as previously described."}, "[10]": {"tested_on": "MIAPaCa2 human pancreatic carcinoma", "test": "MIAPaCa2 subcutaneous tumor in scid mice", "type": "in vivo, mouse", "description": "To study in vivo efficacy of the compounds, MIAPaCa2 human pancreatic carcinoma cells were implanted subcutaneously in scid mice. The treatment was initiated when the size of the primary tumor became 0.1 cm3 (Day0) or larger, e.g., 7 or 8 mm in diameter. CDDP (3 mg/kg) and CBP 501 (10 or 40 mg/kg) were intra-peritoneally administered alone or in combination. Tumor sizes were measured using calipers three times a week, and volumes were calculated using the formula: weight(mg)=[width (mm)2×length (mm)]/2. Mean tumor sizes for each treatment group are plotted (n=4) against the days after the start of treatment (FIG. 10)."}, "[11]": {"tested_on": "MIAPaCa2 human pancreatic carcinoma cells", "test": "Colony formation analysis of MIAPaCa2 cells", "details": "CBP501 10 μM, cisplatin or oxaliplatin 1, 3 or 9 μg/ml, 3 hours, 10 days", "experimental": "Briefly, cells were plated at 300 cells/well in 6 well plates, incubated overnight, and treated with the compounds for three hours. The medium was changed and cultured for an additional 10 days. Cells were subsequently fixed with 70% methanol, stained with 0.1% crystal violet and visualized."}, "[12]": {"test": "Mouse serum treatment analysis, residual CBP501 quantity by HPLC", "type": "in vitro ADME", "details": "mouse serum (table title), 37 degree"}}, "note": "Where a SMILES comes first, the peptide text is derived from it. Where no end group is shown, it is not given here. [ ]: non-standard residue; d: D form. dPhe(F5) = N[C@H](Cc1c(F)c(F)c(F)c(F)c1F)C(=O)O; dBpa = N[C@H](Cc1ccc(C(=O)c2ccccc2)cc1)C(=O)O; dCha = N[C@H](CC1CCCCC1)C(=O)O", "data": [{"molecule": "(d-Arg)(d-Arg)(d-Arg)(d-Arg)(d-Bpa)(d-Arg)(d-Trp)(d-Arg)(d-Phe-2,3,4,5,6-F)(d-Cha) ([dR][dR][dR][dR][dBpa][dR][dW][dR][dPhe(F5)][dCha]) [CBP702]", "values": [{"measurement": "G2 checkpoint abrogating activity", "setting": "[1]", "value": "retain G2 checkpoint abrogating activity comparable to other peptides having significant G2 checkpoint abrogating activity"}]}, {"molecule": "(d-Arg)(d-Arg)(d-Arg)(d-Bpa)(d-Arg)(d-Trp)(d-Arg)(d-Phe-2,3,4,5,6-F)(d-Cha) ([dR][dR][dR][dBpa][dR][dW][dR][dPhe(F5)][dCha]) [CBP701]", "values": [{"measurement": "G2 checkpoint abrogating activity", "setting": "[1]", "value": "retain G2 checkpoint abrogating activity comparable to other peptides having significant G2 checkpoint abrogating activity"}]}, {"molecule": "N=C(N)NCCC[C@H](NC(=O)CNC(=O)[C@@H](N)Cc1ccc(O)cc1)C(=O)N[C@@H](CCCCN)C(=O)N[C@@H](CCCCN)C(=O)N[C@@H](CCCNC(=N)N)C(=O)N[C@@H](CCCNC(=N)N)C(=O)N[C@@H](CCC(N)=O)C(=O)N[C@@H](CCCNC(=N)N)C(=O)N[C@@H](CCCNC(=N)N)C(=O)N[C@@H](CCCNC(=N)N)C(=O)N[C@@H](CC1CCCCC1)C(=O)N[C@@H](Cc1c(F)c(F)c(F)c(F)c1F)C(=O)N[C@@H](CCCNC(=N)N)C(=O)N[C@@H](CO)C(=O)N1CCC[C@H]1C(=O)N[C@@H](CO)C(=O)N[C@@H](Cc1ccc(O)cc1)C(=O)N[C@@H](Cc1ccc(O)cc1)C(=O)O", "note": "[CBP413, (l-Tyr)(l-Gly)(l-Arg)(l-Lys)(l-Lys)(l-Arg)(l-Arg)(l-Gln)(l-Arg)(l-Arg)(l-Arg)(l-Cha)(l-Phe-2,3,4,5,6-F)(l-Arg)(l-Ser)(l-Pro)(l-Ser)(l-Tyr)(l-Tyr)]", "values": [{"measurement": "G2 abrogating dose", "setting": "[1]; with 40 μg/ml bleomycine, 24 hours", "value": "≧1.56 μM"}]}, {"molecule": "(d-Arg)(d-Arg)(d-Bpa)(d-Arg)(d-Arg)(d-Arg)(d-Phe-2,3,4,5,6-F)(d-Cha) ([dR][dR][dBpa][dR][dR][dR][dPhe(F5)][dCha]) [CBP700]", "values": [{"measurement": "G2 checkpoint abrogating activity", "setting": "[1]", "value": "retain G2 checkpoint abrogating activity comparable to other peptides having significant G2 checkpoint abrogating activity"}]}, {"molecule": "(d-Arg)(d-Arg)(d-Arg)(d-Bpa)(d-Arg)(d-Arg)(d-Arg)(d-Phe-2,3,4,5,6-F)(d-Cha) ([dR][dR][dR][dBpa][dR][dR][dR][dPhe(F5)][dCha]) [CBP703]", "values": [{"measurement": "G2 checkpoint abrogating activity", "setting": "[1]", "value": "retain G2 checkpoint abrogating activity comparable to other peptides having significant G2 checkpoint abrogating activity"}]}, {"molecule": "N=C(N)NCCC[C@@H](NC(=O)[C@@H](CCCNC(=N)N)NC(=O)[C@@H](CCC(N)=O)NC(=O)[C@@H](CCCNC(=N)N)NC(=O)[C@@H](CCCNC(=N)N)NC(=O)[C@@H](CCCNC(=N)N)NC(=O)[C@@H](CC1CCCCC1)NC(=O)[C@@H](Cc1c(F)c(F)c(F)c(F)c1F)NC(=O)[C@@H](CO)NC(=O)[C@@H](Cc1c[nH]c2ccccc12)NC(=O)[C@@H](CO)NC(=O)[C@H](N)Cc1ccc(C(=O)c2ccccc2)cc1)C(=O)O", "note": "[CBP501, (d-Bpa)(d-Ser)(d-Trp)(d-Ser)(d-Phe-2,3,4,5,6-F)(d-Cha)(d-Arg)(d-Arg)(d-Arg)(d-Gln)(d-Arg)(d-Arg)] (H-[dBpa][dS][dW][dS][dPhe(F5)][dCha][dR][dR][dR][dQ][dR][dR]-OH; N-terminus and C-terminus assumed)", "values": [{"measurement": "Effect on growth of normal cells", "setting": "[2]", "value": "does not affect the growth of HUVEC cells"}, {"measurement": "Phagocytosis of macrophages in vitro", "setting": "[3]", "value": "inhibited phagocytosis of both M1 and M2 macrophages"}, {"measurement": "Sensitization to DNA damaging agents (% sub-G1 cells)", "setting": "[4]", "value": "sensitized MIAPaCa2 cells to both bleomycin and adriamycin in a dose dependent manner"}, {"measurement": "Hazard Ratio OS", "setting": "[5]; ALL treated, exploring other covariates", "value": 0.77}, {"measurement": "Hazard Ratio OS", "setting": "[5]; ALL treated, without exploring other covariates", "value": 0.96}, {"measurement": "Hazard Ratio OS", "setting": "[5]; WBC <10000/μL at screening, exploring other covariates", "value": 0.69}, {"measurement": "Hazard Ratio OS", "setting": "[5]; WBC <10000/μL at screening, without exploring other covariates", "value": 0.80}, {"measurement": "Survival benefit from addition to pemetrexed plus cisplatin", "setting": "[5]; all treated population", "value": "no statistically significant survival benefit"}, {"measurement": "Survival benefit from addition to pemetrexed plus cisplatin", "setting": "[5]; sub-group with normal or low WBC at screening", "value": "provided a benefit"}, {"measurement": "Dose limiting allergic reactions (grade 3)", "setting": "[6]; CBP501 36.4 mg/m^2 and cisplatin 75 mg/m^2", "value": "two out of six patients experienced allergic reactions"}, {"measurement": "MTD in patients", "setting": "[6]; in combination with cisplatin 75 mg/m^2, once every 21 days", "value": 24.3, "unit": "mg/m^2"}, {"measurement": "Platinum concentration and platinum-DNA adduct formation", "setting": "[7]", "value": "increase platinum concentration and platinum-DNA adduct formation"}, {"measurement": "Effect on M phase cell cycle arrest induced by colchicine", "setting": "[8]", "value": "does not affect M phase cell cycle arrest and/or non specific toxicity induced by colchicine"}, {"measurement": "Dose up to which non specific toxicity (M checkpoint abrogation) was absent", "setting": "[8]; 0.5 μg/ml colchicine", "value": "> 50", "unit": "µM"}, {"measurement": "Dose up to which HUVEC cells were not sensitized to cisplatin", "setting": "[9]", "value": "> 50", "unit": "µM"}, {"measurement": "Tumor growth, treatment alone", "setting": "[10]; CBP501 10 or 40 mg/kg intra-peritoneally", "value": "suppresses the growth of human pancreatic cancer cell in vivo"}, {"measurement": "Tumor growth, combination with cisplatin", "setting": "[10]; CDDP 3 mg/kg and CBP501 10 or 40 mg/kg intra-peritoneally", "value": "increased the anti-tumor activity of cisplatin"}, {"measurement": "G2 checkpoint abrogating activity", "setting": "[1]", "value": "abrogated in a dose dependent manner"}, {"measurement": "Effect on cyto-toxic activity of platinum drugs, colony formation", "setting": "[11]", "value": "enhanced the cyto-toxic activity of both cisplatin and oxaliplatin"}, {"measurement": "Residual peptide after 1 hr serum treatment", "setting": "[12]", "value": ">90", "unit": "%"}]}]}
